Counter-ions that a name gives are not always drawn. Like-named read-outs stand apart in the source and are kept apart here.
What was measured:
[1] = target: T1, SHV-5 β-lactamase (Klebsiella pneumoniae, UniProt P0A3M1); assay: β-lactamase enzyme inhibition assay (nitrocefin substrate), SHV-5; format: biochemical
T1 construct: expressed as native untagged proteins; made in house; host or cells: E. coli BL21(DE3)
In short: (§1)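 Native untagged enzymes were expressed in E. coli BL21(DE3) and purified by cation exchange and gel filtration. Compounds (100–0.005 µM, PBS pH 7.0) were preincubated with enzyme for 10 min at 37 °C, then 100 µM nitrocefin was added and read kinetically at 486 nm for 10 min. IC50 is the concentration giving 50% reduction of initial hydrolysis rate versus uninhibited controls.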

[2] = target: T2, CTX-M15 β-lactamase (Escherichia coli, UniProt Q9EXV5); assay: β-lactamase enzyme inhibition assay (nitrocefin substrate), CTXM-15; format: biochemical
T2 construct: expressed as native untagged proteins; made in house; host or cells: E. coli BL21(DE3)
In short: as §1

[3] = target: T3, p99 AmpC β-lactamase (Enterobacter cloacae, UniProt P05364); assay: β-lactamase enzyme inhibition assay (nitrocefin substrate), P99 AmpC; format: biochemical
T3 construct: expressed as native untagged proteins; made in house; host or cells: E. coli BL21(DE3)
In short: as §1

[4] = target: T4, KPC-2 β-lactamase (Klebsiella pneumoniae, UniProt Q9F663); assay: β-lactamase enzyme inhibition assay (nitrocefin substrate), KPC-2; format: biochemical
T4 construct: expressed as native untagged proteins; made in house; host or cells: E. coli BL21(DE3)
In short: as §1

[5] = target: T5, VIM-2 metallo β-lactamase (Pseudomonas aeruginosa, UniProt Q9K2N0); assay: β-lactamase enzyme inhibition assay (nitrocefin substrate), VIM-2; format: biochemical
T5 construct: made in house
Description: Isolation of β-lactamases. For SHV-5, p99 AmpC, KPC-2 and CTX-M15 β-lactamases, E. coli BL21(DE3) bacterial cells carrying expression plasmids (expressed as native untagged proteins) for the individual β-lactamases were grown in 1 L of Superbroth (Teknova Inc. Hollister, Calif.) supplemented with 100 μg/ml kanamycin and 1×5052 (0.5% glycerol, 0.05% glucose and 0.2% α-lactose) at 35° C. for 18-20 hours. Cells were harvested by centrifugation (4,000×g, 4° C., 20 min), and resuspended in 50 ml of 10 mM HEPES pH 7.5 (1/20 of the initial volume). The cells were lysed by sonication (5 pulses of 45 seconds) at 45 W on ice. The lysates were clarified by centrifugation at 10,000×g for 40 minutes at 4° C. Samples were diluted 5-fold in 50 mM sodium acetate pH 5.0, stored overnight at 4° C., after which they were centrifuged at 10,000×g for 30 minutes to clarify, and filtered through 0.45 μm filters. The samples were loaded onto a 5 ml Capto S sepharose cation exchange column (GE Healthcare) pre-equilibrated with 50 mM sodium acetate pH 5.0. The column was washed with 5 column volumes of 50 mM sodium acetate pH 5.0 to wash out unbound protein and a linear gradient of NaCl (0 to 500 mM) was used to elute the protein (over 16 CV) from the column. Fractions were assayed for β-lactamase activity using Centa (Calbiochem, Gibbstown, N.J.) as a reporter β-lactamase substrate for activity in the isolated fractions. Active fractions were pooled, concentrated and further purified by gel filtration chromatography on a Superdex 75 prep grade gel filtration column (GE Healthcare, Piscataway, N.J.) pre-equilibrated in 50 mM Hepes pH 7.5, 150 mM NaCl. Active fractions were pooled concentrated, quantitated by BCA protein determination (Thermo Scientific, Rockford, Ill.), and frozen at −80° C. in 20% glycerol until use.
For VIM-2 metallo (β-lactamase, the procedure was identical with the following exceptions: 1) the protein was not pH adjusted to pH 5 with 50 mM sodium acetate, 2) the chromatography step was changed to a 5 ml Q sepharose anion exchange column pre-equilibrated with 50 mM Hepes pH 7.5, and 3) elution of the protein was achieved by a linear gradient of NaCl (0-600 mM). Finally, the VIM-2 purification required a second run (3rd step) on the Q sepharose anion exchange column to achieve acceptable purity (>90%).
(§2) β-lactamase Inhibition. To determine the level of inhibition of β-lactamase enzymes, compounds were diluted in PBS at pH 7.0 to yield concentrations between 100 and 0.005 μM in microtiter plates. An equal volume of diluted enzyme stock was added, and the plates were incubated at 37° C. for 10 min. Nitrocefin solution was then dispensed as substrate into each well at a final concentration of 100 μM, and the plates were immediately read with the kinetic program at 486 nm for 10 min on the SPECTRAMAX® Plus^384 (high-throughput microplate spectrophotometer; Molecular Devices Corp., Sunnyvale, Calif.). Maximum rates of metabolism were then compared to those in control wells (without inhibitors), and percentages of enzyme inhibition were calculated for each concentration of inhibitor. The concentration of inhibitor needed to reduce the initial rate of hydrolysis of substrate by 50% (IC50) was calculated as the residual activity of β-lactamase at 486 nm using the SoftMax Pro 5.0 software (Molecular Devices Corp.).
Using the methodology described above, examples of the current invention were evaluated for their ability to inhibit β-lactamase enzymes. The results of these assays are summarized in Table 2 for representative enzymes across different subtypes (note SHV-5 and CTXM-15 exemplify different subclasses of Ambler Class A Extended Spectrum Beta Lactamases, KPC-2 exemplifies Class A carbapenemases, P99 represents chromosomal Class C AmpC, VIM-2 exemplifies subclass B1 of metallo-β-lactamases, and OXA-23 represents chromosome-encoded Class D oxacillin-hydrolyzing β-lactamases), NT=not tested.

[6] = target: T6, OXA-23 β-lactamase (Acinetobacter baumannii, UniProt Q9L4P2); assay: β-lactamase enzyme inhibition assay (nitrocefin substrate), OXA-23 crude extract; format: biochemical
T6 construct: crude β-lactamase extracts were prepared from 20 ml overnight cultures; endogenous in cells; host or cells: Acinetobacter baumannii cells containing OXA-23 (crude freeze-thaw extract)
Description: For OXA-23 β-lactamase, crude β-lactamase extracts were prepared from 20 ml overnight cultures with shaking. Acenitobacter baumanni cells containing OXA-23 were further diluted 10-fold and grown to mid-log phase (OD at 600 nm, 0.5-0.8) in Mueller-Hinton II (MH-II) broth at 37° C. The cells were pelleted at 5000 g, washed and resuspended in 2 mL PBS pH 7.0. The β-lactamases were extracted by four cycles of freezing and thawing followed by centrifugation. β-lactamase activity in the extracts was measured with the chromogenic cephalosporin nitrocefin. The amount of protein in each β-lactamase preparation was determined by the bicinchoninic acid (BCA) assay.
as §2

[7] = system: E. coli expressing the Class A ESBL SHV-5; assay: In vitro antibacterial assay of β-lactamase inhibition (broth microdilution MIC), E. coli SHV-5; format: cell-based; settings: in presence of Ceftazidime 8 μg/ml (Examples 1-56)
In short: (§3)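 MIC read by eye after 16-20 h at 37° C. Compounds were titrated 2-fold from 8 μg/mL down to 0.015 μg/mL (final) in CAMHB with a β-lactam antibiotic, and wells were inoculated per CLSI with strains grown 3-5 h under 50 μg/mL ampicillin.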

[8] = system: K. pneumoniae expressing the Class A Extended Spectrum Beta-Lactamase (ESBL) CTX-M-15; assay: In vitro antibacterial assay of β-lactamase inhibition (broth microdilution MIC), K. pneumoniae CTX-M-15; format: cell-based; settings: in presence of Ceftazidime 8 μg/ml (Examples 1-56)
In short: as §3

[9] = system: E. cloacae expressing the Class C P99+; assay: In vitro antibacterial assay of β-lactamase inhibition (broth microdilution MIC), E. cloacae P99+; format: cell-based; settings: in presence of Ceftazidime 8 μg/ml (Examples 1-56)
In short: as §3

[10] = system: K. pneumoniae expressing the Class A carbapenemase KPC-2; assay: microbe, parasite or virus in culture; format: cell-based; settings: in presence of Ceftazidime 8 μg/ml (Examples 1-56)
In short: as §3

[11] = system: P. aeruginosa expressing the Class B metallo β-lactamase VIM-2; assay: In vitro antibacterial assay of β-lactamase inhibition (broth microdilution MIC), P. aeruginosa VIM-2; format: cell-based; settings: in presence of Ceftazidime 16 μg/mL (Examples 1-56)
In short: as §3

[12] = nitrocefin 100 μM, 37° C., PBS pH 7.0, read-out: P99 AmpC IC50
[13] = nitrocefin 100 μM, 37° C., PBS pH 7.0, read-out: VIM-2 IC50
[14] = nitrocefin 100 μM, 37° C., PBS pH 7.0, read-out: OXA-23 IC50

T2 sequence (Q9EXV5 entry or part of it): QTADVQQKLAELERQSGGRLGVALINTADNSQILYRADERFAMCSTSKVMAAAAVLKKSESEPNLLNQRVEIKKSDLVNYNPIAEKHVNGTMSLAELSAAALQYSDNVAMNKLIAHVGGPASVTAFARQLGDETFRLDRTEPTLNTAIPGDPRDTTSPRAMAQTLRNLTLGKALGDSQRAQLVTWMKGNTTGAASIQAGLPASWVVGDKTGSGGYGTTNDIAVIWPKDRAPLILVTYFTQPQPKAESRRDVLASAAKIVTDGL
T6 sequence (Q9L4P2 18-273): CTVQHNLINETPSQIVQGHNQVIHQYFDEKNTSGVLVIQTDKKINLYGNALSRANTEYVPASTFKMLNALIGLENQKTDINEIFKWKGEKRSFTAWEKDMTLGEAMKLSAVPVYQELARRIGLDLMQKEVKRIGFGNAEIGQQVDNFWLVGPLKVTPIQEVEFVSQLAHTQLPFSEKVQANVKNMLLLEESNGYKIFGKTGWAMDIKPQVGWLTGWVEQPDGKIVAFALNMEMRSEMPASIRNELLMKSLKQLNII
T1 sequence (P0A3M1 22-286): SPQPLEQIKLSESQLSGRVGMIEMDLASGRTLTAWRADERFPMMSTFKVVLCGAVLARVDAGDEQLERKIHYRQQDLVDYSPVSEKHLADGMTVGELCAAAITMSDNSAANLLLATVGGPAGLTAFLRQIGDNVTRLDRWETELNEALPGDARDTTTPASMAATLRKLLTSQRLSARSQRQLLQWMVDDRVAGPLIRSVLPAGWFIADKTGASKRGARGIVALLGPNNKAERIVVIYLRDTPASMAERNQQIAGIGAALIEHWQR
T4 sequence (Q9F663 25-293 limits assumed): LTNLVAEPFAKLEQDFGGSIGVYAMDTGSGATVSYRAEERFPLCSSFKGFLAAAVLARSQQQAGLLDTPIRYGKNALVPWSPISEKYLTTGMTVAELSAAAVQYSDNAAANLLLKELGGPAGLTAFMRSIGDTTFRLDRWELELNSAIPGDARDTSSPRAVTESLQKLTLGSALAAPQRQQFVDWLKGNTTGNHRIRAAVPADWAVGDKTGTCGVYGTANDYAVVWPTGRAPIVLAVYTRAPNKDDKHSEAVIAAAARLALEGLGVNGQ
T3 sequence (P05364 21-381): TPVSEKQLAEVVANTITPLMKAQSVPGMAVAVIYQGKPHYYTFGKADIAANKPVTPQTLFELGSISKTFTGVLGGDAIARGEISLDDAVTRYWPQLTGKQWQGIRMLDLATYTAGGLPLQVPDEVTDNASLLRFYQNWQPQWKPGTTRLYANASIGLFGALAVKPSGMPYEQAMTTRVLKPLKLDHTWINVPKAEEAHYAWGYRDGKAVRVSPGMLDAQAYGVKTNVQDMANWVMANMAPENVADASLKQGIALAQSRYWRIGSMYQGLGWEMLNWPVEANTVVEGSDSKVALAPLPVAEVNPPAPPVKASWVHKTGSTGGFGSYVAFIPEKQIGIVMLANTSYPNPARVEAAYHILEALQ

Row | Compound | IC50 [1] | IC50 [2] | IC50 [3, 12] | IC50 [4] | IC50 [5, 13] | IC50 [6, 14] | MIC of example compound, E. coli SHV-5 [7] | MIC of example compound, K. pneumoniae CTX-M-15 [8] | MIC of example compound, E. cloacae P99+ [9] | MIC of example compound, K. pneumoniae KPC-2 [10] | MIC of example compound, P. aeruginosa VIM-2 [11] | IC50 [3] | IC50 [5] | IC50 [6]
1 | CN(C)Cc1ccc(C(=O)N[C@@H](Cc2cccc(C(=O)O)c2O)B(O)O)cc1 [Example 4, 2(R)-3-[2-(4-(N,N-Dimethylaminomethyl)benzoylamino)-2-borono-ethyl]-2-hydroxy-benzoic acid formate salt] | 0.6 nM | 3 nM | 3 nM | 4 nM | > 1000 nM | 99 nM | 1 µg/mL | 0.25 µg/mL | 2 µg/mL | 0.06 µg/mL | >8 µg/mL |  |  | 
2 | Cl.O=C(N[C@@H](Cc1cccc(C(=O)O)c1O)B(O)O)c1ccc(N2CCNCC2)nc1 [Example 9, (2R)-3-{2-[(2-(1-piperazinyl)-pyridine-5-carbonyl)-amino]-2-borono-ethyl}-2-hydroxy-benzoic acid hydrochloride] | > 1000 nM | 83 nM | 2 nM | 6 nM | 242 nM | > 1000 nM | 4 µg/mL | 1 µg/mL | 0.25 µg/mL | <0.01 µg/mL | >8 µg/mL |  |  | 
3 | CC(=O)Nc1ccc(C(=O)N[C@@H](Cc2cccc(C(=O)O)c2O)B(O)O)cn1 [Example 10, (2R)-3-{2-[(2-(acetylamino)-pyridine-5-carbonyl)-amino]-2-borono-ethyl}-2-hydroxy-benzoic acid] | 319 nM | 3 nM | 3 nM | 4 nM | 680 nM | 580 nM | 1 µg/mL | 0.25 µg/mL | 0.5 µg/mL | 0.01 µg/mL | >8 µg/mL |  |  | 
4 | CNCc1ccc(C(=O)N[C@@H](Cc2cccc(C(=O)O)c2O)B(O)O)cc1.Cl [Example 11, (1R)-[4-(methylamino)methyl]-benzoylamino-(3-carboxy-2-hydroxy)benzyl-methyl boronic acid hydrochloride] | > 1000 nM | 4 nM | 1 nM | 4 nM | 57 nM | > 1000 nM | 8 µg/mL | 1 µg/mL | 0.25 µg/mL | <0.01 µg/mL | 8 µg/mL |  |  | 
5 | Cl.O=C(N[C@@H](Cc1cccc(C(=O)O)c1O)B(O)O)c1ccc(CN2CCCC(C(=O)O)C2)cc1 (stereo partly drawn) [Example 12, (1R)-[4-(piperidine-3-carboxylic acid)-methyl]-benzoylamino-(3-carboxy-2-hydroxy)benzyl-methyl boronic acid hydrochloride] | 870 nM | 3 nM | 900 nM | 11 nM | 930 nM | > 1000 nM | 4 µg/mL | 1 µg/mL | 2 µg/mL | 0.03 µg/mL | >8 µg/mL |  |  | 
6 | CC[N+](CC)(CC)Cc1ccc(C(=O)N[C@@H](Cc2cccc(C(=O)O)c2O)B(O)O)cc1 [Example 13, (1R)-(4-(triethylammonium)methyl)-benzoylamino-(3-carboxy-2-hydroxy)benzyl-methyl boronic acid bromide] | > 1000 nM | 14 nM |  | 3 nM |  |  | >8 µg/mL | >8 µg/mL | >8 µg/mL | 0.25 µg/mL | >8 µg/mL | 4 nM | 340 nM | > 1000 nM
7 | O=C(N[C@@H](Cc1cccc(C(=O)O)c1O)B(O)O)c1ccc(C[n+]2ccccc2)cc1 [Example 14, (1R)-[4-(pyridinium)-methyl]-benzoylamino-(3-carboxy-2-hydroxy)benzyl-methyl boronic acid chloride] | > 1000 nM | 1 nM |  | 21 nM |  |  | >8 µg/mL | >8 µg/mL | 0.5 µg/mL | 0.01 µg/mL | >8 µg/mL | 29 nM | 360 nM | > 1000 nM
8 | Cl.NCCNCc1ccc(C(=O)N[C@@H](Cc2cccc(C(=O)O)c2O)B(O)O)cc1 [Example 15, (1R)-[4-(2-amino-ethylamino)-methyl]-benzoylamino-(3-carboxy-2-hydroxy)benzyl-methyl boronic acid hydrochloride] | > 1000 nM | 7 nM | 5 nM | 18 nM | 47 nM | > 1000 nM | 4 µg/mL | 0.25 µg/mL | 4 µg/mL | 0.01 µg/mL | >8 µg/mL |  |  | 
